In US10899737B2, “Piperazine carbamates and methods of making and using same” (Lundbeck La Jolla Research Center, Inc., priority 2016, dated 2021):

Legend:
Type in all cases: biochemical
[1] = target: T1, MAGL (Homo sapiens, UniProt Q99685); assay: In vitro competitive activity-based protein profiling (human), MAGL; conditions: for inhibition at 1 µM: 1 μM inhibitor, human proteome, 30 min preincubation at 37° C, read-out: MAGL % inh. 1 μM (human); for IC50: human PC3
T1 construct: Proteomes (human prefrontal cortex or cell membrane fractions); from tissue
T1 sequence (Q99685 1-303): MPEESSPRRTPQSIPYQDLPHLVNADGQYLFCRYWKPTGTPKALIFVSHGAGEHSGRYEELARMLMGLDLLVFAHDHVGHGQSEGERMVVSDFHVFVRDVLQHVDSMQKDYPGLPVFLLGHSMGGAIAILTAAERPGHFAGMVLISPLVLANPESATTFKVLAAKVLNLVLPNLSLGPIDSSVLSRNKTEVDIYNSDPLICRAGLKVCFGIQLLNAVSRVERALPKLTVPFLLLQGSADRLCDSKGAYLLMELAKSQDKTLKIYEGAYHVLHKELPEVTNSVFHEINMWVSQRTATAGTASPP
Procedure: (§1) In Vitro Competitive Activity-Based Protein Profiling (Human).
(§2) Proteomes (human prefrontal cortex or cell membrane fractions) (50 μL, 1.0-2.0 mg/mL total protein concentration) were preincubated with varying concentrations of inhibitors at 37° C. After 30 min, FP-Rh or JW912 (1.0 μL, 50 μM in DMSO) was added and the mixture was incubated for another 30 min at room temperature. Reactions were quenched with SDS loading buffer (15 μL-4×) and run on SDS-PAGE. Following gel imaging, serine hydrolase activity was determined by measuring fluorescent intensity of gel bands corresponding to MAGL and ABHD6 using ImageJ 1.49 k software.

[2] = target: T2, ABHD6 (Mus musculus, UniProt Q8R2Y0); assay: In vitro competitive activity-based protein profiling (mouse), ABHD6; conditions: 1 μM inhibitor, mouse brain membrane fraction or cell lysates; read-out: ABHD6 % inh. 1 μM (mouse)
T2 construct: Proteomes (mouse brain membrane fraction or cell lysates); from tissue; host or cells: mouse brain membrane fraction or cell lysates
T2 sequence (Q8R2Y0 1-336): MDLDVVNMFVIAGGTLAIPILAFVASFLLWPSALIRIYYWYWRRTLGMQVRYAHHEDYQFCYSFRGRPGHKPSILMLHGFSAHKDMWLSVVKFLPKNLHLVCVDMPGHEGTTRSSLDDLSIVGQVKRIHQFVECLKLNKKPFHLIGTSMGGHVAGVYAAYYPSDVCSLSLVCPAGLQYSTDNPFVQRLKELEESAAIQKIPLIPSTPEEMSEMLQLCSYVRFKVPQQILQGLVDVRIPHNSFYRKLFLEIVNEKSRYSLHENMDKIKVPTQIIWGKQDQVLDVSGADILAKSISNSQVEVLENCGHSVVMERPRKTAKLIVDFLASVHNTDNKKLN
Procedure: (§3) In Vitro Competitive Activity-Based Protein Profiling (Mouse).
(§4) Proteomes (mouse brain membrane fraction or cell lysates) (50 μL, 1.0 mg/mL total protein concentration) were preincubated with varying concentrations of inhibitors at 37° C. After 30 min, FP-Rh (1.0 μL, 50 μM in DMSO) was added and the mixture was incubated for another 30 min at 37° C. Reactions were quenched with SDS loading buffer (50 μL-4×) and run on SDS-PAGE. Following gel imaging, serine hydrolase activity was determined by measuring fluorescent intensity of gel bands corresponding to MAGL and ABHD6 using ImageJ 1.49 k software. Data from this assay is shown in Table 1 (% inhibition at 1 μM).

[3] = target: T3, MAGL (Mus musculus, UniProt O35678); assay: In vitro competitive activity-based protein profiling (mouse), MAGL; conditions: 1 μM inhibitor, mouse brain membrane fraction or cell lysates; read-out: MAGL % inh. 1 μM (mouse)
T3 construct: Proteomes (mouse brain membrane fraction or cell lysates); from tissue; host or cells: mouse brain membrane fraction or cell lysates
T3 sequence (O35678 1-303): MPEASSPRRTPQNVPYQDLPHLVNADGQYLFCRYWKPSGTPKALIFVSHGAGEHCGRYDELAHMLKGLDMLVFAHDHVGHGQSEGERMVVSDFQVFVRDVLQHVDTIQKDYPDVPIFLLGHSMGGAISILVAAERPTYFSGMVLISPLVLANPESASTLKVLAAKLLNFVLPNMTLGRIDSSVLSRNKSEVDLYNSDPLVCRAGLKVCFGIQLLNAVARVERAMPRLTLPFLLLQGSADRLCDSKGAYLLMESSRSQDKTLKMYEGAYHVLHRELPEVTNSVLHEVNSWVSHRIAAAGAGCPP
Procedure: as §3, §4

[4] = target: T4, ABHD6 (Homo sapiens, UniProt Q9BV23); assay: In vitro competitive activity-based protein profiling (human), ABHD6; conditions: human PC3
T4 construct: Proteomes (human prefrontal cortex or cell membrane fractions); endogenous in cells; human prefrontal cortex
T4 sequence (Q9BV23 1-337): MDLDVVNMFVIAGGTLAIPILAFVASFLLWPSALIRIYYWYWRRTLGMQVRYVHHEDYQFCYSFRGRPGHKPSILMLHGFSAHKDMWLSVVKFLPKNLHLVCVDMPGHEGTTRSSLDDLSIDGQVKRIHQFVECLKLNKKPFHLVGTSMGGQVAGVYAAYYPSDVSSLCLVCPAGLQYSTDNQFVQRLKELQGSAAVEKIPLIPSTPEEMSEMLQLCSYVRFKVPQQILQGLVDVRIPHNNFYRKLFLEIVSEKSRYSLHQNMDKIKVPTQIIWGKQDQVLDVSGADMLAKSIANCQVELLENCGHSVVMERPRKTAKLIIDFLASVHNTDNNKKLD
Procedure: as §1, §2

Row | inhibition at 1 µM [1] | IC50 [1] | inhibition at 1 µM [2] | inhibition at 1 µM [3] | IC50 [4] | Compound
1 | ≥ 75% | 0.1 to 1 µM | 0 to 25% | ≥ 75% | 1 to 10 µM | O=C(O)C1CCN(Cc2cc(C(F)(F)F)ccc2CN2CCN(C(=O)OC(C(F)(F)F)C(F)(F)F)CC2)CC1 [Example 41, 1-(2-((4-(((1,1,1,3,3,3-hexafluoropropan-2-yl)oxy)carbonyl)piperazin-1-yl)methyl)-5-(trifluoromethyl)benzyl)piperidine-4-carboxylic acid]
2 | ≥ 75% | 0.1 to 1 µM | 0 to 25% | ≥ 75% | 1 to 10 µM | O=C(O)C1COCCN1c1cc(C(F)(F)F)ccc1CN1CCN(C(=O)OC(C(F)(F)F)C(F)(F)F)CC1 (stereo not shown) [Example 71, 4-(2-((4-(((1,1,1,3,3,3-hexafluoropropan-2-yl)oxy)carbonyl)piperazin-1-yl)methyl)-5-(trifluoromethyl)phenyl)morpholine-3-carboxylic acid]
3 | ≥ 75% | ≤ 0.1 µM | ≥ 75% | ≥ 75% | ≤ 0.1 µM | O=C(O)[C@@H]1CCCN(c2cc(CN3CCN(C(=O)OC(C(F)(F)F)C(F)(F)F)CC3)cc(C(F)(F)F)c2)C1 [Example 66, (R)-1-(3-((4-(((1,1,1,3,3,3-hexafluoropropan-2-yl)oxy)carbonyl)piperazin-1-yl)methyl)-5-(trifluoromethyl)phenyl)piperidine-3-carboxylic acid]
4 | ≥ 75% | ≤ 0.1 µM | ≥ 75% | ≥ 75% | ≤ 0.1 µM | CC1(C(=O)O)CCN(c2cc(CN3CCN(C(=O)OC(C(F)(F)F)C(F)(F)F)CC3)cc(C(F)(F)F)c2)CC1 [Example 29, 1-(3-((4-(((1,1,1,3,3,3-Hexafluoropropan-2-yl)oxy)carbonyl)piperazin-1-yl)methyl)-5-(trifluoromethyl)phenyl)-4-methylpiperidine-4-carboxylic Acid]
5 | ≥ 75% | ≤ 0.1 µM | ≥ 75% | ≥ 75% | 0.1 to 1 µM | O=C(O)[C@H]1CCCN(c2cc(CN3CCN(C(=O)OC(C(F)(F)F)C(F)(F)F)CC3)cc(C(F)(F)F)c2)C1 [Example 81, (S)-1-(3-((4-(((1,1,1,3,3,3-hexafluoropropan-2-yl)oxy)carbonyl)piperazin-1-yl)methyl)-5-(trifluoromethyl)phenyl)piperidine-3-carboxylic acid]
6 | ≥ 75% | ≤ 0.1 µM | ≥ 75% | ≥ 75% | 0.1 to 1 µM | O=C(OC(C(F)(F)F)C(F)(F)F)N1CCN(Cc2ccc(C(F)(F)F)c(C3(C(=O)O)CCCC3)c2)CC1 [Example 37, 1-(5-((4-(((1,1,1,3,3,3-hexafluoropropan-2-yl)oxy)carbonyl)piperazin-1-yl)methyl)-2-(trifluoromethyl)phenyl)cyclopentane-1-carboxylic acid]
7 | ≥ 75% | ≤ 0.1 µM | 0 to 25% | ≥ 75% | 0.1 to 1 µM | N#Cc1ccc(CN2CCN(C(=O)OC(C(F)(F)F)C(F)(F)F)CC2)c(N2CCC(C(=O)O)CC2)c1 [Example 69, 1-(5-cyano-2-((4-(((1,1,1,3,3,3-hexafluoropropan-2-yl)oxy)carbonyl)piperazin-1-yl)methyl)phenyl)piperidine-4-carboxylic acid]
8 | ≥ 75% | ≤ 0.1 µM | ≥ 75% | ≥ 75% | 1 to 10 µM | O=C(O)C1CCN(c2cc(C(F)F)ccc2CN2CCN(C(=O)OC(C(F)(F)F)C(F)(F)F)CC2)CC1 [Example 72, 1-(5-(difluoromethyl)-2-((4-(((1,1,1,3,3,3-hexafluoropropan-2-yl)oxy)carbonyl)piperazin-1-yl)methyl)phenyl)piperidine-4-carboxylic acid]
9 | ≥ 75% | ≤ 0.1 µM | 0 to 25% | ≥ 75% | 1 to 10 µM | O=C(O)CN1CCC2(C1)CN(c1cc(Cl)ccc1CN1CCN(C(=O)OC(C(F)(F)F)C(F)(F)F)CC1)C2 [Example 48, 2-(2-(5-chloro-2-((4-(((1,1,1,3,3,3-hexafluoropropan-2-yl)oxy)carbonyl)piperazin-1-yl)methyl)phenyl)-2,6-diazaspiro[3.4]octan-6-yl)acetic acid]
10 | ≥ 75% | ≤ 0.1 µM | ≥ 75% | ≥ 75% | 0.1 to 1 µM | O=C(OC(C(F)(F)F)C(F)(F)F)N1CCN(Cc2cc(C(F)(F)F)cc(C3(C(=O)O)CCCC3)c2)CC1 [Example 1, 1-(3-((4-(((1,1,1,3,3,3-Hexafluoropropan-2-yl)oxy)carbonyl)piperazin-1-yl)methyl)-5-(trifluoromethyl)phenyl)cyclopentane-1-carboxylic Acid]
11 | ≥ 75% | ≤ 0.1 µM | 50 to 75% | ≥ 75% | 1 to 10 µM | O=C(O)C1CCN(c2cc(F)ccc2CN2CCN(C(=O)OC(C(F)(F)F)C(F)(F)F)CC2)CC1 [Example 73, 1-(5-fluoro-2-((4-(((1,1,1,3,3,3-hexafluoropropan-2-yl)oxy)carbonyl)piperazin-1-yl)methyl)phenyl)piperidine-4-carboxylic acid]
12 | ≥ 75% | ≤ 0.1 µM | ≥ 75% | ≥ 75% | 0.1 to 1 µM | CCCC1(C(=O)O)CCN(c2cc(CN3CCN(C(=O)OC(C(F)(F)F)C(F)(F)F)CC3)cc(C(F)(F)F)c2)CC1 [Example 52, 1-(3-((4-(((1,1,1,3,3,3-hexafluoropropan-2-yl)oxy)carbonyl)piperazin-1-yl)methyl)-5-(trifluoromethyl)phenyl)-4-propylpiperidine-4-carboxylic acid]
13 | ≥ 75% | ≤ 0.1 µM | ≥ 75% | ≥ 75% | 0.1 to 1 µM | O=C(O)C1COCCN1c1cc(CN2CCN(C(=O)OC(C(F)(F)F)C(F)(F)F)CC2)cc(C(F)(F)F)c1 (stereo not shown) [Example 68, 4-(3-((4-(((1,1,1,3,3,3-hexafluoropropan-2-yl)oxy)carbonyl)piperazin-1-yl)methyl)-5-(trifluoromethyl)phenyl)morpholine-3-carboxylic acid]
14 | ≥ 75% | ≤ 0.1 µM | ≥ 75% | ≥ 75% | 0.1 to 1 µM | O=C(OC(C(F)(F)F)C(F)(F)F)N1CCN(Cc2cc(Cl)cc(C3(C(=O)O)CCCC3)c2)CC1 [Example 32, 1-(3-Chloro-5-((4-(((1,1,1,3,3,3-hexafluoropropan-2-yl)oxy)carbonyl)piperazin-1-yl)methyl)phenyl)cyclopentane-1-carboxylic Acid]
